Results on 36 compounds are retold here after patent US12522607B2, “Substituted pyrazolo[3,4-d]pyrimidines as wee-1 inhibitors” (WIGEN BIOMEDICINE TECHNOLOGY (SHANGHAI) CO., LTD., priority 2020, dated 2026).

One experiment has as its target T1, Wee-1 kinase (Homo sapiens, UniProt P30291).
T1 construct: purchased Invitrogen
As to the kind of experiment: Inhibitory activity against Wee-1 kinase (Lanthra Screen Wee-1 kinase kit, Tracer 178). The format is binding. The conditions noted are these: Wee-1 kinase 5 nM, Tracer 178 50 nM, 1 h room temperature. How it is done:
Example 342. Assay for Inhibitory Activity of Compounds Against Wee-1 Kinase
The inhibitory activity of compounds against Wee-1 kinase was determined by using the Lanthra Screen Wee-1 kinase kit (Invitrogen). 5 μL of the compound diluted in a gradient with DMSO, 5 μL. of Wee-1 kinase (at a final concentration of 5 nM), 5 μL of an Eu-Anti-GST antibody (at a final concentration of 2 nM) mixture and 5 μL of kinase Tracer 178 (at a final concentration of 50 nM) were mixed well. The plate was read after incubation at room temperature for one hour. For comparison with the DMSO solvent control group, IC50 for the inhibition activity of the compounds against Wee-1 kinase was calculated.

Another experiment deals with HT29 cells. Briefly: Antiproliferative activity against HT29 cells (Cell Titer-Lumi, ATP content). In kind it is cell-based. Conditions: Homo sapiens, HT-29, 72 after compound addition, read-out: HT-29 cells Anti-proliferative activity (IC50 for the inhibition against HT-29 cell growth). How it is done: Example 343. Assay for Antiproliferative Activity Against HT29 Cells
3000 HT29 cells were seed in a 384-well plate (Fisher 142762). After the cells adhered to the wall overnight, the compounds diluted in a gradient were added. 72 later, Cell Titer-Lumi (Beyotime C0068XL) was added to determine the content of ATP in the cells. The growth of the cells was evaluated, and the IC50 for the inhibition of the compounds against cell growth was calculated.

Each structure is given as a SMILES string.

T1 sequence (P30291 whole entry): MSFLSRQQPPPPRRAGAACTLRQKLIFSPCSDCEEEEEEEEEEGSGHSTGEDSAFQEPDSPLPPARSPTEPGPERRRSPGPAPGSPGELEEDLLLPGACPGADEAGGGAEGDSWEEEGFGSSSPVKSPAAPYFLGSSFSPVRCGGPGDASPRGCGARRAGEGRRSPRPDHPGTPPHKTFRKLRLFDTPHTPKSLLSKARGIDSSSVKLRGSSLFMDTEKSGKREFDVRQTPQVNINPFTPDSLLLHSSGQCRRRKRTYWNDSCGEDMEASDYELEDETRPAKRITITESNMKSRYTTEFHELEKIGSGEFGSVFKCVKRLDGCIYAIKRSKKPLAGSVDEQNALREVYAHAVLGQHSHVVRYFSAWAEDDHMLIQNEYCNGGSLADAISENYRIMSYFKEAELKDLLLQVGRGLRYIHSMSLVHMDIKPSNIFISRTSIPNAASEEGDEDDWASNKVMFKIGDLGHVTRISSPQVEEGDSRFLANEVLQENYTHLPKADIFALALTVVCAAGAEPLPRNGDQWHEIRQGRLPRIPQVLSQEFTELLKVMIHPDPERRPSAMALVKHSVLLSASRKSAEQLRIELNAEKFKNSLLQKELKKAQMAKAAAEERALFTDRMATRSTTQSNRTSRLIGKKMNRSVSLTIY

One may read the IC50 as the concentration that gives 50% inhibition. In the case of `C=CCn1c(=O)c2cnc(Nc3ccc(N4CCC(N)CC4)c(C)c3)nc2n1-c1ccc(=O)n(C(C)C)n1` [Compound 102], the IC50 against Wee-1 kinase is not above 30 nM; with HT29 cells, not above 1000 nM.

`C=CCn1c(=O)c2cnc(Nc3ccc(N4CCN(C)CC4)cc3)nc2n1-c1cc(OC)c(=O)n(C(C)C)n1` [Compound 23]: the IC50 against Wee-1 kinase was not above 30 nM; in the experiment with HT29 cells, more than 3000 nM.

As for `C=CCn1c(=O)c2cnc(Nc3ccc4c(ccn4C4CCN(C)CC4)c3)nc2n1-c1ccc(=O)n(C(C)C)n1` [Compound 270], the IC50 against Wee-1 kinase was not above 30 nM; in the experiment with HT29 cells, not above 1000 nM.

As to `C=CCn1c(=O)c2cnc(Nc3ccc(N4CCNCC4)c(C)c3)nc2n1-c1ccc(=O)n(C(C)C)n1` [Compound 41], the figures for the IC50 at Wee-1 kinase and in the experiment with HT29 cells were not above 30 nM and not above 1000 nM, respectively.

With `CC(C)n1cc(-n2c3nc(Nc4ccc5c(c4)CN(C)CC54CC4)ncc3c(=O)n2C2CC2)cc(F)c1=O` [Compound 326], the figures for the IC50 against Wee-1 kinase and in the experiment with HT29 cells were not above 30 nM and not above 1000 nM, respectively.

In the case of `C=CCn1c(=O)c2cnc(Nc3ccc(N4CC5(CCCCN5C)C4)c(C)c3)nc2n1-c1ccc(=O)n(C(C)C)n1` [Compound 189], the IC50 on Wee-1 kinase was 30 to 100 nM; in the experiment on HT29 cells it was not above 1000 nM.

As for `C=CCn1c(=O)c2cnc(Nc3cc(N4CCN(C)CC4)c4ccn(C5CC5)c4c3)nc2n1-c1ccc(=O)n(C(C)C)n1` [Compound 258], the figures for the IC50 on Wee-1 kinase and in the experiment with HT29 cells were not above 30 nM and not above 1000 nM, respectively.

As to `C=CCn1c(=O)c2cnc(Nc3ccc(N4CCC(N)CC4)cc3)nc2n1-c1ccc(=O)n(C(C)C)n1` [Compound 101], the values for the IC50 on Wee-1 kinase and in the experiment with HT29 cells were not above 30 nM and 1000 to 3000 nM, respectively.

With `C=CCn1c(=O)c2cnc(Nc3ccc(C4CCN(C)CC4)c(C)c3)nc2n1-c1ccc(=O)n(C(C)C)c1` [Compound 297], the IC50 against Wee-1 kinase was not above 30 nM; with HT29 cells, not above 1000 nM.

`C=CCn1c(=O)c2cnc(Nc3ccc(N4CCC(C)(N(C)C)CC4)c(C)c3)nc2n1-c1ccc(=O)n(C(C)C)n1` [Compound 114]: the IC50 against Wee-1 kinase is not above 30 nM; in the experiment with HT29 cells, not above 1000 nM.

Turning to `C=CCn1c(=O)c2cnc(Nc3ccc(N4C[C@@H](C)N(C)[C@@H](C)C4)c(C)c3)nc2n1-c1ccc(=O)n(C(C)C)n1` [Compound 119], the IC50 was not above 30 nM on Wee-1 kinase and not above 1000 nM with HT29 cells.

Turning to `C=CCn1c(=O)c2cnc(Nc3ccc(N4C[C@H](C)N(C)C[C@H]4C)cc3)nc2n1-c1ccc(=O)n(C(C)C)n1` [Compound 125], the figures for the IC50 at Wee-1 kinase and with HT29 cells were not above 30 nM and not above 1000 nM, respectively.

As for `CC(C)n1cc(-n2c3nc(Nc4ccc5c(c4)CN(C)CC54CC4)ncc3c(=O)n2C2CC2)ccc1=O` [Compound 310], the IC50 against Wee-1 kinase was not above 30 nM; in the experiment on HT29 cells, not above 1000 nM.

Turning to `C=CCn1c(=O)c2cnc(Nc3ccc(N4CCNCC4)c(Cl)c3)nc2n1-c1ccc(=O)n(C(C)C)c1` [Compound 45], the half-maximal inhibitory concentration (IC50) against Wee-1 kinase is not above 30 nM; in the experiment with HT29 cells, not above 1000 nM.

On to `C=CCn1c(=O)c2cnc(Nc3ccc(N4CC5(CCNCC5)C4)cc3)nc2n1-c1ccc(=O)n(C(C)C)n1` [Compound 166], for which the IC50 against Wee-1 kinase lay in the range of 30 to 100 nM; with HT29 cells it was 1000 to 3000 nM.

For `CC(C)n1nc(-n2c3nc(Nc4ccc5c(c4)CN(C)CC54CC4)ncc3c(=O)n2C(C)C)ccc1=O` [Compound 280], the IC50 was not above 30 nM against Wee-1 kinase and not above 1000 nM in the experiment with HT29 cells.

With `C=CCn1c(=O)c2cnc(Nc3ccc(N4C[C@@H](C)N(C)[C@@H](C)C4)c(Cl)c3)nc2n1-c1ccc(=O)n(C(C)C)n1` [Compound 121], the figures for the IC50 on Wee-1 kinase and in the experiment with HT29 cells were not above 30 nM and not above 1000 nM, respectively.

Take `C=CCn1c(=O)c2cnc(Nc3ccc4c(c3)CN(C)CC43CC3)nc2n1-c1ccc(=O)n(C(C)C)c1` [Compound 298]: the IC50 on Wee-1 kinase is not above 30 nM; in the experiment with HT29 cells it was not above 1000 nM.

For `C=CCn1c(=O)c2cnc(Nc3ccc(N4CCC5(CCN(C)CC5)CC4)c(OC)c3)nc2n1-c1ccc(=O)n(C(C)C)n1` [Compound 186], the IC50 on Wee-1 kinase is not above 30 nM; with HT29 cells, not above 1000 nM.

In the case of `C=CCn1c(=O)c2cnc(Nc3ccc4c(c3)CN(C)CC43CC3)nc2n1-c1ccc(=O)n(C(C)C)n1` [Compound 232], the values for the IC50 against Wee-1 kinase and in the experiment on HT29 cells were not above 30 nM and not above 1000 nM, respectively.

With `C=CCn1c(=O)c2cnc(Nc3cc(N4CCC(N(C)C)CC4)c4ccn(C5CC5)c4c3)nc2n1-c1ccc(=O)n(C(C)C)n1` [Compound 260], the IC50 was not above 30 nM at Wee-1 kinase and not above 1000 nM in the experiment with HT29 cells.

On to `C=CCn1c(=O)c2cnc(Nc3cc(C)c(N4CCN(C)CC4)c(Cl)c3)nc2n1-c1ccc(=O)n(C(C)C)n1` [Compound 58], for which the IC50 at Wee-1 kinase was not above 30 nM; in the experiment on HT29 cells, not above 1000 nM.

`C=CCn1c(=O)c2cnc(Nc3ccc(N4CCC5(CN(C)C5)C4)c(C)c3)nc2n1-c1ccc(=O)n(C(C)C)n1` [Compound 173]: the IC50 was not above 30 nM on Wee-1 kinase and not above 1000 nM with HT29 cells.

For `C=CCn1c(=O)c2cnc(Nc3ccc(N4CCN(C)CC4)cc3)nc2n1-c1cc(OC)c(=O)n(C(C)C)c1` [Compound 27], the results for the IC50 against Wee-1 kinase and in the experiment on HT29 cells were 30 to 100 nM and more than 3000 nM, respectively.

Turning to `C=CCn1c(=O)c2cnc(Nc3ccc(N4CCC(N(C)C)CC4)c(OC)c3)nc2n1-c1ccc(=O)n(C(C)C)n1` [Compound 100], the IC50 at Wee-1 kinase is not above 30 nM; in the experiment on HT29 cells, not above 1000 nM.

Turning to `C=CCn1c(=O)c2cnc(Nc3ccc(N4CCC5(CCNCC5)CC4)cc3)nc2n1-c1ccc(=O)n(C(C)C)n1` [Compound 181], the IC50 is not above 30 nM on Wee-1 kinase and 1000 to 3000 nM in the experiment on HT29 cells.

With `C=CCn1c(=O)c2cnc(Nc3ccc(N4CCN(C)CC4)c(Cl)c3)nc2n1-c1ccc(=O)n(C(C)C)c1` [Compound 46], the figures for the IC50 against Wee-1 kinase and in the experiment on HT29 cells were not above 30 nM and not above 1000 nM, respectively.

`C=CCn1c(=O)c2cnc(Nc3ccc(N4CCN(CC#N)CC4)cc3)nc2n1-c1ccc(=O)n(C(C)C)n1` [Compound 40]: the figures for the IC50 on Wee-1 kinase and with HT29 cells were not above 30 nM and not above 1000 nM, respectively.

In the case of `C=CCn1c(=O)c2cnc(Nc3cccc(C4CCN(C)CC4)c3)nc2n1-c1ccc(=O)n(C(C)C)n1` [Compound 205], the values for the IC50 against Wee-1 kinase and in the experiment on HT29 cells were not above 30 nM and not above 1000 nM, respectively.

With `Cc1cc(Nc2ncc3c(=O)n(C4CC4)n(-c4ccc(=O)n(C(C)C)n4)c3n2)ccc1C1CCN(C)CC1` [Compound 273], the IC50 is not above 30 nM on Wee-1 kinase and not above 1000 nM in the experiment with HT29 cells.

For the compound `C=CCn1c(=O)c2cnc(Nc3ccc(N4CC(N5CCC5)C4)c(OC)c3)nc2n1-c1ccc(=O)n(C(C)C)n1` [Compound 82], the IC50 at Wee-1 kinase was not above 30 nM; in the experiment on HT29 cells, not above 1000 nM.

Consider `C=CCn1c(=O)c2cnc(Nc3ccc(N4CCN(C)CC4)cc3)nc2n1-c1cc(C#N)c(=O)n(C(C)C)c1` [Compound 28], for which the IC50 is 30 to 100 nM on Wee-1 kinase and more than 3000 nM in the experiment with HT29 cells.

Consider `Cc1cc(Nc2ncc3c(=O)n(C4CC4)n(-c4ccc(=O)n(C(C)C)c4)c3n2)ccc1C1CCN(C)CC1` [Compound 309], for which the IC50 is not above 30 nM on Wee-1 kinase and not above 1000 nM in the experiment with HT29 cells.

In the case of `C=CCn1c(=O)c2cnc(Nc3cc(F)c(N4CCNCC4)c(OC)c3)nc2n1-c1ccc(=O)n(C(C)C)n1` [Compound 63], the figures for the IC50 against Wee-1 kinase and in the experiment with HT29 cells were not above 30 nM and not above 1000 nM, respectively.

Regarding `C=CCn1c(=O)c2cnc(Nc3ccc(N4CCN(C)CC4)c(F)c3)nc2n1-c1ccc(=O)n(C(C)C)n1` [Compound 44], the IC50 against Wee-1 kinase is not above 30 nM; in the experiment with HT29 cells it was not above 1000 nM.

As to `C=CCn1c(=O)c2cnc(Nc3cc(F)c(N4CCN(C)CC4)c(Cl)c3)nc2n1-c1ccc(=O)n(C(C)C)n1` [Compound 60], the IC50 against Wee-1 kinase was not above 30 nM; in the experiment with HT29 cells it was not above 1000 nM.
